In US6441011B1, “Combined preparation consisting of 2-methylthiazolidine-2,4-dicarboxylic acid and paracetamol” (priority 1997, dated 2002):
Marks after values point to notes of the source that are not given here.

Key:
mice [1] = test: Toxic effects of CP under in-vivo conditions; settings: up to a dose of 2.4 mmol CP/kg of body weight
Experimental: (§1) The mice were pre-treated using 1.2 mmol CP/kg, and 12 hours later they were treated with the control solution or 600 mg of paracetamol/kg of body weight i.p. Hepatic tissue and blood were extracted after another 3 hours, and the indicator substances were measured.

mice [2] = test: Time-dosage dependency: GSH in hepatic tissue after CP injection; type: in vivo; settings: for GSH % of control / GSH: mice
Hep G2 cells = test: Cytotoxicity of paracetamol and protective action of CP on permanent hepatic cell line; type: cell-based
Experimental: The cells were kept for 10 days in a medium that contained paracetamol (1 mM). […] The concentrations of the indicator substances were measured at the end of the period of exposure (Table 3). […] It is therefore recommended to choose higher AA concentrations for later experiments.

mice [3] = test: Paracetamol liver damage and pre-treatment with CP: indicator substances in hepatic tissue and blood; type: in vivo; settings: for Cysteine / Cystine / Glycogen / Non-protein SH / Oxygen radicals / Protein SH / Total SH / AlAT / AspAT: CP 1.2 mmol/kg pre-treatment, 12 h later paracetamol 600 mg/kg i.p. or control solution; for Cysteine / Cystine / Glycogen / Non-protein SH / Oxygen radicals / Protein SH / Total SH: tissue after another 3 h; for AlAT / AspAT: blood serum, blood after another 3 h; for concentration of oxygen radicals / concentration of sulfhydryl groups / free cysteines in the hepatic tissue / glycogen in the hepatic tissue / enzymes in the blood serum released from the liver (AlAT, AspT): paracetamol 600 mg/kg single dose, CP pre-treatment 1.2 mmol/kg; for enzymes in the blood serum released from the liver (AlAT, AspT): within 3 hours
Experimental: as §1

[4] = CP 1.2 mmol/kg, 8 h after injection
[5] = CP 2.4 mmol/kg, 4 h after injection
[6] = Hep G2 cells, 10 days, AA 1 mM, simultaneous CP 2 mM
[7] = Hep G2 cells, 10 days, AA 1 mM, CP 2 mM

Compound: CC1(C(=O)O)NC(C(=O)O)CS1 (centres unmarked) [CP, 2-methyl-thiazolidine-2,4-dicarboxylic acid]
- toxic effects (mice [1]): no toxic effects
- increase of glutathione concentration in the hepatic tissue (mice [2]; after 12 hours, 1.2 or 2.4 mmol/kg of body weight): could still be detected
- GSH % of control (mice [2]; CP 1.2 mmol/kg, 1 h after injection): 117.5 % of control
- GSH % of control (mice [2]; CP 1.2 mmol/kg, 4 h after injection): 87.2 % of control
- GSH (mice [2]; [4]): 6.48 ± 0.67 μmol/g of wet weight
- GSH % of control (mice [2]; [4]): 108.5 % of control
- GSH % of control (mice [2]; CP 1.2 mmol/kg, 12 h after injection): 122.0 % of control
- GSH % of control (mice [2]; CP 2.4 mmol/kg, 1 h after injection): 127.6 % of control
- GSH (mice [2]; [5]): 5.76 ± 0.42 μmol/g of wet weight
- GSH % of control (mice [2]; [5]): 90.3 % of control
- GSH % of control (mice [2]; CP 2.4 mmol/kg, 8 h after injection): 112.0 % of control
- GSH % of control (mice [2]; CP 2.4 mmol/kg, 12 h after injection): 154.5 % of control
- glutathione concentration in the hepatic tissue (mice [2]; within one hour post application of 1.2 or 2.4 mmol/kg of body weight): rose considerably
- effect against high concentrations of paracetamol in the hepatic cell model (Hep G2 cells; Hep G2 cell culture): protective effect
- L-cysteine and cystine concentrations (Hep G2 cells; [6]): more than compensated
- free radicals (Hep G2 cells; [6]): prevented
- Cysteine (mice [3]): 0.240^a ± μmol/g wet weight of the liver
- Cystine (mice [3]): 0.020^a ± μmol/g wet weight of the liver
- Glycogen (mice [3]): 12.59 ± 0.21 mg/g wet weight of the liver
- Non-protein SH (mice [3]): 3.81^a ± μmol/g wet weight of the liver
- Oxygen radicals (mice [3]): 0.120^a ± μmol/g wet weight of the liver
- Protein SH (mice [3]): 13.27^a ± μmol/g wet weight of the liver
- Total SH (mice [3]): 17.08^a ± μmol/g wet weight of the liver
- AlAT (mice [3]): 20 units/l
- AspAT (mice [3]): 199 units/l
- concentration of oxygen radicals (mice [3]): significantly reduced
- concentration of sulfhydryl groups (mice [3]): reduced the decrease
- free cysteines in the hepatic tissue (mice [3]): significantly increased
- glycogen in the hepatic tissue (mice [3]): significantly increased
- enzymes in the blood serum released from the liver (AlAT, AspT) (mice [3]): suppressed the increase

Compound: CC(=O)Nc1ccc(O)cc1 [Paracetamol, paracetamol]
- concentrations of the other indicator substances (Hep G2 cells; Hep G2 cells, 10 days, AA 1 mM): remained unchanged
- Cysteine (Hep G2 cells; [7]): 3.68 nmol/mg Protein
- Cystine (Hep G2 cells; [7]): 0.130 nmol/mg Protein
- GSH (Hep G2 cells; [7]): 14.9 nmol/mg Protein
- Glutamine synthetase (Hep G2 cells; [7]): 0.41 units/mg protein
- LDH (Hep G2 cells; [7]): 1.88 units/mg protein
- NPSH (Hep G2 cells; [7]): 18.90 nmol/mg Protein
- free radicals (Hep G2 cells; [7]): 0.210 nmol/mg Protein
- number of cells (Hep G2 cells; [7]): 6 × 10^8 cells
- vital cells (Hep G2 cells; [7]): 94% vital
- L-cysteine and cystine concentrations (Hep G2 cells; [6]): dropped slightly
- free radicals (Hep G2 cells; [6]): increase
- Cysteine (mice [3]): 0.062^a ± μmol/g wet weight of the liver
- Cystine (mice [3]): 0.025^a ± μmol/g wet weight of the liver
- Glycogen (mice [3]): 8.45^a ± mg/g wet weight of the liver
- Non-protein SH (mice [3]): 0.22^a ± μmol/g wet weight of the liver
- Oxygen radicals (mice [3]): 0.317^a ± μmol/g wet weight of the liver
- Protein SH (mice [3]): 12.34 ± 0.20 μmol/g wet weight of the liver
- Total SH (mice [3]): 12.56^a ± μmol/g wet weight of the liver
- AlAT (mice [3]): 682 units/l
- AspAT (mice [3]): 855 units/l
- concentration of oxygen radicals (mice [3]): increased
- concentration of sulfhydryl groups (mice [3]): dropped dramatically
- free cysteines in the hepatic tissue (mice [3]): dropped dramatically
- glycogen in the hepatic tissue (mice [3]): dropped dramatically
- enzymes in the blood serum released from the liver (AlAT, AspT) (mice [3]): enormous increase
